Experimental data from the METLIN SMRT retention time set (Domingo-Almenara et al. 2019).

Experiment: gradient 5% acetonitrile 3 min, to 50% in 2 min, to 85% in 15 min, held 3 min, 100 µL/min
Details: column: Zorbax Extend-C18 2.1 x 50 mm; eluents: water / acetonitrile, 0.1% formic acid
Method in brief: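 Retention time was recorded from adduct peaks, which were picked computationally and each inspected manually. Pure standards ran in mixtures of ~100 molecules on HPLC coupled to a quadrupole time-of-flight mass spectrometer, in positive and negative ionization mode, through a Zorbax Extend-C18 column (2.1 × 50 mm, 1.8 μm) at 100 μL/min. Eluents were water and acetonitrile, each with 0.1% formic acid.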

RP-LC retention time [s] | Structure (SMILES)
680 | CCCn1c(CCc2ccccc2NS(=O)(=O)c2cnn(CC)c2)nc2ccccc21
580 | O=C(NC1CCN(c2ncnc3c2CCC3)C1)c1ccsc1 (stereo unspecified)
830 | CCc1ccc(CN2C(=O)c3ccccc3C2C(=O)NCC2CCCO2)cc1 (stereo unspecified)
1320 | Cc1ccc(CNS(=O)(=O)c2cc(-c3nc(C(C)(C)C)cs3)cs2)cc1
955 | CC1CCCN(C(=O)c2cn(-c3cc(-c4nc(C(C)C)no4)ccn3)cn2)C1 (stereo unspecified)
707 | CC(C)n1c(=O)c(NCCCc2ccccc2)nc2ccncc21
818 | O=C(Cc1coc2ccc3ccccc3c12)NCc1ccco1
1080 | Cc1cc(C)c2c(N)c(C(=O)Nc3cccc4cccnc34)sc2n1
857 | CSc1ccc(CNC(=O)COc2cc(C)nc(N3CCN(c4ccccc4)CC3)n2)cc1
907 | O=C(NCCOc1cccc(C(F)(F)F)c1)c1ccccc1Cl
603 | COc1ccc(N2C(=O)CCS2(=O)=O)cc1S(=O)(=O)N1CCN(c2ccccn2)CC1
756 | COC(=O)c1ccccc1NC(=O)Cn1nc2n(c1=O)CCCCC2
700 | COc1ccc(C(=O)CSc2nnc(NC(=O)CN(C)S(C)(=O)=O)s2)cc1
757 | COc1cccc(CNC(=O)Cn2c(=O)c(CCC(=O)NCC(C)C)nc3ccccc32)c1OC
714 | Cc1c2ccncc2c(C)c2c1sc1ccccc12
541 | O=C(Nc1ccc2cn[nH]c2c1)c1ccc2nc[nH]c2c1
861 | O=C(Cn1ccn2nc(-c3ccccc3)c(CO)c2c1=O)N1CCCc2ccccc21
596 | Cn1cnc(S(=O)(=O)NCCc2noc(-c3ccncc3)n2)c1
697 | COc1ccc(C(C)NC(=O)Cn2c(=O)nc(-c3ccccc3)c3ccccc32)cc1OC (stereo unspecified)
898 | CCc1nc(-c2c(C)cc(C)nc2NC(=O)c2cccc(Br)c2)no1
774 | CCN(CC)CCNC(=O)c1nn(-c2ccc(Cl)cc2)c2c1CCc1cc(OC)ccc1-2
573 | CN1CCN(CCNC(=O)C2CN(S(=O)(=O)c3ccccc3)CC23CCCCC3)CC1 (stereo unspecified)

RP-LC retention time [s] | Structure (SMILES)
1210 | CC(C)(C)OC(=O)COc1cc(O)c2c(=O)cc(-c3ccccc3)oc2c1
657 | CCC(C)NC(=O)CCc1c(-c2ccc(Br)cc2)nc2ccccn12 (stereo unspecified)
584 | CC(C(=O)NN1CCOCC1)n1nc(-c2ccco2)ccc1=O (stereo unspecified)
858 | CC(CCc1ccccc1)NC(=O)c1ccc(-n2cccn2)nc1 (stereo unspecified)
794 | COc1cccc(S(=O)(=O)N2CCC(c3nc(C(=O)N4CCOCC4)c(C)o3)CC2)c1
774 | COc1cccc(CC(=O)N2CCC(C(=O)NCc3csc(-c4cccs4)n3)CC2)c1
696 | O=C(NCCN1CCCCC1)C1CCCN(c2ncc(-c3cccc(F)c3)cn2)C1 (stereo unspecified)
747 | O=C(c1ccc2cc[nH]c2c1)N1CCN(c2cc(-c3cccs3)[nH]n2)CC1
642 | CCN(CC)C(=O)c1ccc2c(c1)N(CC(=O)N1CCOCC1)C(=O)CS2
923 | CC(C)Cn1nc(CNC(=O)c2ccccn2)c2ccccc21
923 | CCOc1ccccc1-c1noc(-c2nn(-c3ccc(C)cc3)ccc2=O)n1
881 | COc1ccc(C(O)Cn2ccn3nc(-c4ccc(C)c(C)c4)cc3c2=O)cc1OC (stereo unspecified)
503 | CCOC(=O)Cn1nc(-n2ccnc2)ccc1=O
674 | Cc1ccnc(N2CCCC(C(=O)NC3CCCC3)C2)n1 (stereo unspecified)
1040 | Cc1ccc(S(=O)(=O)N2CCc3c(c(-c4nnc(-c5ccccc5F)o4)nn3C)C2)cc1Cl
830 | CNC(=O)N1CCCC(c2cccc(C(=O)NCc3ccc(Br)cc3)c2)C1 (stereo unspecified)
587 | O=C(COc1ccc2c(c1)OCO2)N1CCN(c2cc(N3CCCCC3)ncn2)CC1
756 | c1ccc(-c2nc3ncc4c(n3n2)CCC4)cc1
1130 | CN(C)c1nc(Cl)nc2c1nc(Cl)n2C1CCCCO1 (stereo unspecified)
857 | Cc1cc(F)ccc1NC(=O)C1CCCN(S(=O)(=O)c2c[nH]c(C(=O)N3CCCCCC3)c2)C1 (stereo unspecified)
777 | Cc1cc(Br)ccc1NC(=O)Cn1cnc2nc3c(cc2c1=O)CCCC3
662 | COc1cc(CNC(=O)Cn2ccc3c(=O)n(C)c(=O)n(C)c32)cc(OC)c1

RP-LC retention time [s] | Structure (SMILES)
572 | CCC(=O)N1CCc2cc(N3CC(C(=O)N4CCCN(C)CC4)CC3=O)ccc21 (stereo unspecified)
770 | O=C(NCc1csc(-c2cccs2)n1)C1CCN(C(=O)c2ccc(F)c(F)c2)CC1
602 | CC(C)C(=O)Nc1c(-c2ccc(F)cc2)nc2ccccn12
737 | Cn1c(=O)c2nc(S(=O)(=O)CCC(=O)Nc3ccc(F)cc3F)n(C)c2n(C)c1=O
779 | COc1ccc(NC(=O)C2CCc3sc(C(=O)N4CCCC4)cc3C2)cc1F (stereo unspecified)
698 | COc1ccc(-c2ccc3c(N4CCOC[C@@H]4C)nc(N4CCOC[C@@H]4C)nc3n2)cc1CO
606 | O=C(c1cccc2[nH]ccc12)N1CCCC(c2n[nH]c(C3CC3)n2)C1 (stereo unspecified)
797 | COc1ccc(Cl)cc1NC(=O)Cc1nnc(-c2ccc3ncccc3c2)o1
851 | Cc1ccc(CNC(=O)Cn2ncn3c(C)c(C(=O)NCc4ccc(C)cc4)c(C)c3c2=O)cc1
727 | COCc1cc2nn(CC(=O)NC3CCCC3)c(=O)n2c(-c2ccccc2)n1
1060 | Cc1cccc(-c2nc(-c3cn(-c4ccccc4)nn3)no2)c1
798 | CC(=O)N1c2ccc(S(=O)(=O)NCCOc3ccc(F)cc3)cc2CC1C (stereo unspecified)
796 | COc1cccc(-c2noc(-c3nn(-c4ccc(F)c(F)c4)ccc3=O)n2)c1OC
918 | COc1ccc(-c2nnc(NC(=O)CSc3nc4ccccc4s3)s2)cc1
866 | O=C(Cn1nc(N2CCOCC2)c2ccccc2c1=O)Nc1ccc(Cl)cc1F
750 | Cc1ccc(NC(=O)N2CCC(c3nc(CCNC(=O)C(C)C)cs3)CC2)cc1
824 | Cc1cc(NC(=O)N2C[C@@H](F)C[C@H]2C(=O)N2CCCCC2)ccc1Br
973 | Cc1ccc(S(=O)(=O)N2C[C@@H](F)C[C@H]2C(=O)N2CCc3ccccc3C2)cc1C
764 | CCn1nccc1C(=O)NC1CCN(C2=NS(=O)(=O)C(c3ccccc3)=C2C)CC1
995 | Cc1nn(-c2ccc(Cl)cc2)c(C)c1S(=O)(=O)N1CCC(C(=O)N2CCCCC2)CC1
1070 | COc1ccc(NC(=O)N2CCN(c3nc4ccccc4nc3C(F)(F)F)CC2)c(OC)c1

Structure (SMILES) | RP-LC retention time [s]
O=C(O)CNC(=O)c1c(O)c2ccccc2n(Cc2ccccc2)c1=O | 989
